From patent US11479536B1 (King Abdulaziz University, priority 2022, dated 2022)

Legend:
[1] = molecular target: T1, CYP2C9 (Homo sapiens, UniProt P11712); assay: Inhibition assay of human CYP450 enzymes, 2C9; format: in vitro ADME
T1 construct: purchased Fisher Scientific; host or cells: insect supersomes
Experimental: (§1) The two compounds MAK-1 and MAK-6 were assessed for its ability to inhibit the three major human CYP450 enzymes, 3A4, 2D6 and 2C9. Assays were run in triplicate. Expressed enzymes in insect supersomes (Fisher Scientific, Waltham, Mass.) were used to minimize non-specific binding and membrane partitioning issues (McMasters et al., 2007). The 3A4 assay uses testosterone as a substrate and analysis was performed by LC/MS/MS on a Waters Xevo TQ instrument as described above using positive electrospray ionization. Assay acceptance criteria was 20% for all standards and 25% for the LLOQ. The 2D6 and 2C9 assays use fluorescent substrates (3-[2-(N,N-diethylamino)ethyl]-7-methoxy-4-methylcoumarin for 2D6; 7-methoxy-4-(trifluoromethyl)coumarin for 2C9) and were analyzed on an Envision plate reader. GraphPad® Prism v 5.04 was used for nonlinear fitting of data to generate IC50 values.

[2] = Stability in human liver microsomes; format: in vitro ADME
Experimental: Both mouse and human liver microsomes were obtained from Merck KGaA, (Darmstadt, Germany), Cat. No. M9441 (Mouse liver microsomes) and M0317 (Human liver microsomes). Assays were conducted in triplicate in 96-deep well polypropylene plates. The compounds were incubated with pooled liver microsomes from male CD-1 mice (Life Technologies, Grand Island, N.Y.), tetra-sodium NADPH and magnesium chloride for 60 min at 37° C. with gentle shaking. At five time points, reaction mixture aliquots were transferred to 96-shallow well stop plates on ice containing acetonitrile with 0.1 μM propafenone. […] Standard curves for test compound were generated using 5 concentrations in triplicate that were processed as above but with zero incubation time. Stop plates were centrifuged at 2000 g for 10 min and then supernatant aliquots were transferred to a Waters Aquity® UPLC 700 μL 96-well sample plate with cap mat (Waters, Milford, Mass.). The amount of compound remaining in the supernatant was quantified by LC/MS/MS using a Waters Xevo TQ MS (electrospray positive mode) coupled to a Waters Aquity® UPLC (BEH column, C18). Propafenone was used as the internal standard. GraphPad® Prism v 5.04 was used for nonlinear fitting of time course data to generate t1/2 values.

[3] = tested on: MCF7 spheroids; assay: Mitochondrial membrane potential assay (JC-1), MCF7 spheroids; format: cell-based, human; conditions: 48 h post treatment at IC50, control 18.01±0.58%
Experimental: The mitochondrial membrane potential was investigated in response to the treatment with MAK compounds. This assay depends on the measurement of the aggregate fluorescence for Tetraethylbenzimidazolylcarbocyanine iodide (JC-1). This cationic dye accumulates in the energized mitochondria, and the increase in aggregate fluorescence indicates mitochondrial […] while the reduction indicates the depolarization state.
After growing the cells and treating them with MAK compound for 48 hours, 2 μM of JC-1 final concentration was added and the mixture was incubated for 1 hour at 37° C. in presence of 5% CO2. Then, the samples were analyzed using flow cytometry. Mean values and standard deviation of replicates were calculated in comparison to the control group.

[4] = tested on: T47D spheroids; assay: Reactive oxygen species (CellROX) assay, T47D spheroids; format: cell-based, human; conditions: 48 h treatment, CellROX Green
Experimental: (§2) The CELLROX (Invitrogen) assay was used to measure the level of reactive oxygen species (ROS) in live cells. […] The technique was used to investigate the capability of tested compounds to induce intracellular ROS. After forming the spheroids for 48 hours and treating them for additional 48 hours with MAK compound, spheroids were incubated in culture medium with 500 nM CellROX for 60 minutes at 37° C. in presence of 5% CO2, and the samples were immediately analyzed on flow cytometry using 488-nm excitation for the CellROX® Green.

[5] = Binding to mouse plasma proteins (equilibrium dialysis); format: in vitro ADME; conditions: CD-1, pH 7.4, 37° C., read-out: free, unbound fraction in mouse plasma
Experimental: The equilibrium dialysis method for determining plasma protein binding was performed as previously described using 96-well dialyzer plates with molecular weight cutoff of 5K (Harvard Apparatus, Holliston, Mass.) and a dual-plate rotator set to maximum speed (Harvard Apparatus, Holliston, Mass.) located in a 37° C. incubator with a 10% CO2-atmospheric environment. Assays were run in triplicate. The test compounds were added to CD-1 mouse plasma (Innovative Research, Novi, Mich., sodium heparin added as anticoagulant; pH adjusted to 7.4 with 2N HCl on day of use) in DMSO (final DMSO concentration 0.4%) to give 10 μM final concentration. Drug/plasma mixture and buffer (Dulbecco's phosphate-buffered saline 1× without calcium and magnesium, Mediatech, Inc., Herndon, Va.) were placed in their respective sides, wells were capped, and the plate was placed in the rotator and allowed to dialyze for 22 h. Following dialysis, aliquots of buffer and plasma mixture were removed and mixed with aliquots of the opposite matrix in 96-well deep plates. Concentrations of analytes from each side of the dialysis plate were determined by LC/MS/MS on a Waters Xevo TQ instrument as described above using positive electrospray ionization. […] The fraction unbound was calculated by dividing the drug concentration in the buffer side of the dialysis plate by the drug concentration in the plasma side.

[6] = tested on: MCF7 spheroids; assay: Reactive oxygen species (CellROX) assay, MCF7 spheroids; format: cell-based, human; conditions: 48 h treatment, CellROX Green
Experimental: as §2

[7] = tested on: MCF7 spheroids; assay: Cytotoxicity assay (MTT) in spheroid culture, MCF7; format: cell-based, human; conditions: for IC50: Homo sapiens, MCF7, 3D spheroid model, 48 h, MTT; for reduction of spheroid size: MCF7 spheroids treated at IC50 for 48 h, vs control
Experimental: 1×10^4 cells of each cell line (MCF7 and T47D) were seeded into ultra-low attachment 96 well plate at 37° C. and grown for 48 hours in DMEM media to result in the formation of spheroids. Then, the cells were subjected to the different treatment conditions before performing the assays.
The cytotoxic effects of MAK compounds were assessed against MCF7 and T47D cell lines using MTT cell viability assay. The cells were treated for 48 hours with different concentrations of each MAK compound and the control cells were subjected to the vehicle (0.1% DMSO). Then, 10% of 5 mg/mL MTT was added to each well containing treated or control cells, and mixture was incubated at 37° C. for 3 hours. After that, the MTT-containing media was replaced with 100 μL DMSO and incubated for 10 minutes at room temperature before measuring the absorbance for each well at 570 nm. According to the measured absorbance, the IC50 was calculated for each compound. All the experiments were performed in biological and experimental replicates.

[8] = molecular target: T2, CYP3A4 (Homo sapiens, UniProt P08684); assay: Inhibition assay of human CYP450 enzymes, 3A4; format: in vitro ADME
T2 construct: purchased Fisher Scientific; host or cells: insect supersomes
T2 sequence (P08684 whole entry): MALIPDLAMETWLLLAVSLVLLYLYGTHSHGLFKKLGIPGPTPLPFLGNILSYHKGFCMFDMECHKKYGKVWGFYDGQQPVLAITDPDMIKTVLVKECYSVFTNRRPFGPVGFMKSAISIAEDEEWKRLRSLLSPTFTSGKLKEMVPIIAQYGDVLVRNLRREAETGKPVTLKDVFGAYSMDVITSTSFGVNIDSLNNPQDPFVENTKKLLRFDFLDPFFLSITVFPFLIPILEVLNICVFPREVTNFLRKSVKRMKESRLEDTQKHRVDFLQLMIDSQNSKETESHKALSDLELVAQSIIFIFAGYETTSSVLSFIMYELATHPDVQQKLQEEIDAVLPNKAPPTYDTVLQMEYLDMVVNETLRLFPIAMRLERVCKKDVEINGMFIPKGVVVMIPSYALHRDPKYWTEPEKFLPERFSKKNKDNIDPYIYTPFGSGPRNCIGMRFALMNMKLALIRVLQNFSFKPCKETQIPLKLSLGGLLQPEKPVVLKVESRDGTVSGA
Experimental: as §1

T1 sequence (P11712 whole entry): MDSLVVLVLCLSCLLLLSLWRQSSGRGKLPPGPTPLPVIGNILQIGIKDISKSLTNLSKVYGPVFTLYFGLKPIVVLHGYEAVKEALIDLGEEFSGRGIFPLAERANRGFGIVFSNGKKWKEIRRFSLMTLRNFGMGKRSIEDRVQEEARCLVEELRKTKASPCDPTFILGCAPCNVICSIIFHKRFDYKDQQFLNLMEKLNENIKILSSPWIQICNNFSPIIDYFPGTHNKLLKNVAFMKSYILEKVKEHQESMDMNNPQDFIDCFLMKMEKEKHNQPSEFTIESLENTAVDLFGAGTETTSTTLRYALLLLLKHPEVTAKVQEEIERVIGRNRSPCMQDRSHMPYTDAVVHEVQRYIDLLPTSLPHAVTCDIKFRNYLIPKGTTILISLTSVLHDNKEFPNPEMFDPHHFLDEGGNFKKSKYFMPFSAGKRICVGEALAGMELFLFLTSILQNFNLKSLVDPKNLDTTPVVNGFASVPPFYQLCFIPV

| Compound | inhibition of CYP2C9 ([1]; concentrations up to 10 μM) | half-life ([2]; human, liver microsomes, in the presence of NADPH, 37° C., read-out: stability to oxidative metabolism in human liver microsomes (t1/2)) | stability in human liver microsomes ([2]; lacking (in absence of) NADPH) | depolarized cells (mitochondrial membrane), mean±SEM [3] | ROS level, treatment vs control [4] | fraction unbound at 22 h, 10 μM [5] | ROS level, treatment vs control [6] | IC50 [7] | reduction of spheroid size [7] | inhibition of CYP3A4 ([8]; concentrations up to 10 μM) | inhibition of CYP2C9 ([1]; concentration not given) | stability in human liver microsomes ([2]; in presence of NADPH, result in words) | inhibition of CYP3A4 ([8]; concentration not given) |
| --- | --- | --- | --- | --- | --- | --- | --- | --- | --- | --- | --- | --- | --- |
| COc1cccc(C(=O)Nc2ccc(CC(=O)NCc3ccccc3)cc2)c1 [MAK-1, N-(4-(2-(benzylamino)-2-oxoethyl)phenyl)-3-methoxybenzamide] | no inhibition | 35 min | a trend that was not repeated | 24.77±0.65% | 4% | 0.083 | 10% | 23.81 ± 0.16 µM | noticeable reduction | no inhibition | – | – | – |
| O=C(Cc1ccc(NC(=O)c2cccc(Cl)c2)cn1)NCc1ccccc1 [MAK-6, N-(6-(2-(benzylamino)-2-oxoethyl)pyridin-3-yl)-3-chlorobenzamide] | – | – | highly stable | 28.73±0.82% | 6% | 0.087 | 6% | 22.9 ± 0.245 µM | noticeable reduction | – | did not display any inhibitory activity | highly stable | did not display any inhibitory activity |
